Data: PubChem BioAssay AID743275 (Broad Institute, 2014)
Results filed as inconclusive are left out. The source made the active and inactive calls.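 How the source made its calls: active means compounds cutting cell count with a fitted half-maximal dose below twice the top dose, in every run; inconclusive means runs disagree, flat partial cut, or poor curve fit; inactive means every run called inactive.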

Columns and labels:
[1] = CAPAN-1 proliferation reduction by RAD52 inhibitors – cell-based, imaging, dry powder, set 2, dose response (AID 743275); settings: CAPAN-1 cell number, Hoechst imaging, 14 days
[2] = tested on: CAPAN-1 cell number, Hoechst imaging, 14 days; experiment: as above

| SMILES | activity change, negative = inhibition ([1]; at 50 µM (top of the series)) | AC50 [2] | further results |
| --- | --- | --- | --- |
| CCNC(=O)Nc1ccc2nc(N3CCN(C)CC3)cc(C)c2c1 | 20.3% (inactive) |  |  |
| CN(C)CCCN(C(=O)c1ccc(C(=O)c2ccccc2)cc1)c1nc2cc3c(cc2s1)OCO3 |  | 30 µM |  |
| CN1CCN(CCCNC(=O)c2cc3c(-c4ccc(Cl)cc4)nn(C)c3s2)CC1 |  | 7.4 µM |  |
| CCN(CC)CCNC(=S)Nc1ccc2nc(N3CCN(CC)CC3)cc(C)c2c1 |  | 31.9 µM |  |
| COc1cc2ccccc2cc1C(=O)N(CCN(C)C)c1nc2c(OC)ccc(OC)c2s1 |  | 33.3 µM |  |
| CN(C)CCCNC(=S)N(CCN(C)C)Cc1cc2cc3c(cc2[nH]c1=O)OCCO3 | -7.72% (inactive) |  |  |
| Cc1nccn1Cc1ccc(NC(=O)c2cccc(NC(=O)c3cccnc3)c2)cc1 | 12.8% (inactive) |  |  |
| Cc1ccc2sc(N(CCCN(C)C)C(=O)c3ccc(S(=O)(=O)N(C)C4CCCCC4)cc3)nc2c1C |  | 34.7 µM |  |
| CCCN(CCC)CCCNC(=S)Nc1ccc2nc(N3CCN(CC)CC3)cc(C)c2c1 | -17.4% (inactive) |  |  |
| c1ccc(CNc2nc(NCc3ccccc3)c3ccccc3n2)cc1 |  | 7.8 µM |  |
| CN(CCCN1CCOCC1)c1cc(-c2ccc(F)cc2)nc2ccnn12 | -17.6% (inactive) |  |  |
| COc1ccc2oc(C(=O)c3ccccc3)c(NC(=O)CN3CCN(C)CC3)c2c1 |  | 38.3 µM |  |
| CCN1CCN(C(=S)Nc2ccc3nc(N4CCN(C)CC4)cc(C)c3c2)CC1 |  | 26.7 µM |  |
| Cc1cc(N2CCN(C)CC2)nc2ccc(NC(=S)N3CCN(c4ccc(Cl)cc4)CC3)cc12 |  |  | activity change, negative = inhibition ([1]; at 26 µM (top of the series)): 16.1% (inactive) |
| CCCNc1nc(Cl)nc(NCc2cccnc2)n1 | 4.33% (inactive) |  |  |
| CCCNc1nc(NCc2cccnc2)nc(N2CCOCC2)n1 |  | 26.5 µM |  |
| Cc1cc(C)c2sc(N(CCCN(C)C)C(=O)CN3C(=O)c4ccccc4C3=O)nc2c1 |  | 26 µM |  |
| Cn1nc(-c2ccc(Cl)cc2)c2cc(C(=O)NCCCN3CCCCCC3)sc21 |  | 23.9 µM |  |
| COc1ccc(OC)c(Nc2nc(NCCO)c3ccccc3n2)c1 |  | 30.2 µM |  |
| CCN(CC)CCN(C(=O)C1=COCCO1)c1nc2c(OC)ccc(OC)c2s1 |  | 48.6 µM |  |
| Cc1ccc2nc(-c3ccc(NC(=S)NC4CC(C)(C)NC(C)(C)C4)cc3)sc2c1 |  | 23.6 µM |  |
| CN(C)CCCNC(=S)NCC(c1ccc(Cl)cc1Cl)c1c[nH]c2ccccc12 (stereo not given) |  | 17.7 µM |  |
| COc1ccc(-c2oc3ncnc(NCCCN4CCOCC4)c3c2-c2ccc(OC)cc2)cc1 | 20.8% (inactive) |  |  |
| COc1nc(NCc2ccccc2)nc(NCc2cccnc2)n1 | -3.86% (inactive) |  |  |
| CCCCN(CC)CCNC(=O)c1cc2c(-c3ccc(Cl)cc3)nn(C)c2s1 |  | 12.6 µM |  |
| COc1ccc(OC)c(Nc2nc(NCCCO)c3ccccc3n2)c1 |  | 24.6 µM |  |
| Cc1cc(N2CCN(C)CC2)nc2ccc(NC(=S)NCCCN3CCc4ccccc4C3)cc12 | 5.99% (inactive) |  |  |
| CN1CCN(c2ccc(NC(=O)c3cc(S(N)(=O)=O)ccc3N3CCOCC3)cc2)CC1 | 4.65% (inactive) |  |  |

| SMILES | activity change, negative = inhibition ([1]; at 50 µM (top of the series)) | AC50 [2] | further results |
| --- | --- | --- | --- |
| OCCNc1nc(Nc2ccccc2F)nc2ccccc12 | 25.7% (inactive) |  |  |
| CCCCN(CC)CCCNC(=S)Nc1ccc2nc(N3CCN(C)CC3)cc(C)c2c1 |  | 44.9 µM |  |
| Cc1cc(N2CCN(C)CC2)nc2ccc(NC(=S)NCCCN3CCN(C)CC3)cc12 | 14.2% (inactive) |  |  |
| COc1ccc(C2NCCc3c2[nH]c2ccccc32)cc1COc1ccc(F)cc1 (stereo not given) |  | 15.2 µM |  |
| c1ccc(-c2cc(N3CCN(CCN4CCCC4)CC3)n3nccc3n2)cc1 | -9.44% (inactive) |  |  |
| CN(C)c1ccc(Nc2nc(N)c3ccccc3n2)cc1 | -26.6% (inactive) |  |  |
| Cc1ccc(C(=O)c2oc3ccccc3c2NC(=O)CN2CCN(C)CC2)cc1 | 9.01% (inactive) |  |  |
| Cc1cc(C)c2c(c1)c1nnc(SCCN3CCCCC3)nc1n2C | 6.3% (inactive) |  |  |
| OCCNc1nc(Nc2ccccc2Cl)nc2ccccc12 |  | 23.9 µM |  |
| O=c1c2c(-c3ccccc3)csc2nc2c3ccccc3c(NCCN3CCOCC3)nn12 | -2.92% (inactive) |  |  |
| CCN(CC)CCCN(Cc1cc2cc3c(cc2[nH]c1=O)OCO3)C(=S)NCCCN(C)C | 15% (inactive) |  |  |
| CC1(C)CC(NC(=O)c2ccc(Cl)c(S(=O)(=O)N(Cc3ccccc3)c3ccccc3)c2)CC(C)(C)N1 |  | 22.1 µM |  |
| CN1CCCN(c2cc(-c3ccccc3)nc3ccnn23)CC1 | -7.07% (inactive) |  |  |
| c1ccc(-c2cc(N3CCC(N4CCCC4)CC3)n3nccc3n2)cc1 | 15.5% (inactive) |  |  |
| C=C1Nc2cc(-c3ccc(Cl)cc3)nn2C(NCCN(C)C)=C1C |  | 31.6 µM |  |
| COc1ccccc1Nc1nc(NCCO)c2ccccc2n1 | -17.4% (inactive) |  |  |
| Cc1c(C(=O)Nc2ccc(S(=O)(=O)N(C)C3CCN(C)CC3)cc2)oc2c(Cl)cccc12 |  | 24.1 µM |  |
| CCN(CC)CCNc1nc(SC)nc2sc3c(c12)CCN(C)C3 | 7.64% (inactive) |  |  |
| Cn1nc(-c2ccc(Cl)cc2)c2cc(C(=O)NCCCN3CCCC3)sc21 |  | 15.8 µM |  |
| Cc1ccc2sc(N(CCCN(C)C)C(=O)c3ccc(S(=O)(=O)N(C)Cc4ccccc4)cc3)nc2c1C |  | 20.4 µM |  |
| COc1ccc(-c2nn(C)c3sc(C(=O)NCCCN4CCOCC4)cc23)cc1OC | -37% (inactive) |  |  |
| CN1CCN(CC(=O)Nc2c(C(=O)c3ccccc3)oc3ccccc23)CC1 | -11.9% (inactive) |  |  |
| CN(C)CCCN(C(=O)c1nc2ccccc2s1)c1nc2ccc(F)cc2s1 | -18.3% (inactive) |  |  |
| Cc1ccc(-c2nc(C(=O)NCCCN3CCOCC3)cc3c2[nH]c2ccccc23)cc1 |  | 30.8 µM |  |
| CCN1CCN(c2cc(C)c3cc(NC(=O)c4ccccn4)ccc3n2)CC1 |  | 40.8 µM |  |
| CCCN1CCN(CCCNC(=S)Nc2ccc3nc(N4CCN(CC)CC4)cc(C)c3c2)CC1 | 0.584% (inactive) |  |  |
| COc1ccc2nc(NCCNC(=S)NCCCN3CCOCC3)c(C#N)cc2c1 |  |  | activity change, negative = inhibition ([1]; at 26 µM (top of the series)): -10.2% (inactive) |
